Literature values, collected in patent US20140056863A1, “NUTRITIONAL COMPOSITIONS HAVING ALPHA-HICA AND EICOSAPENTAENOIC ACID” (Nestec S.A., priority 2011, published 2014).

How the values were obtained:
[1] = tested on: intestinal mammalian target of rapamycin (mTOR); settings: piglet stressed with LPS; leading to increased protein synthesis and anti-inflammatory responses
[2] = tested on: malnourished aged animals

SMILES	phosphorylation of intestinal mTOR [1]	anabolic effect [2]
O=C(O)CCC(=O)C(=O)O [AKG, α-ketoglutarate]	increased phosphorylation	
NC(=O)NCCC[C@H](N)C(=O)O [Citrulline, citrulline]		anabolic effect
